Our source for the Ki values is US8940724B2, “Quinoline derivitives and their uses” (Amgen Inc., priority 2009, dated 2015).

A word on the Ki: it is the equilibrium dissociation constant of an inhibitor or competing ligand from its target.

T1 sequence (O00329 whole entry): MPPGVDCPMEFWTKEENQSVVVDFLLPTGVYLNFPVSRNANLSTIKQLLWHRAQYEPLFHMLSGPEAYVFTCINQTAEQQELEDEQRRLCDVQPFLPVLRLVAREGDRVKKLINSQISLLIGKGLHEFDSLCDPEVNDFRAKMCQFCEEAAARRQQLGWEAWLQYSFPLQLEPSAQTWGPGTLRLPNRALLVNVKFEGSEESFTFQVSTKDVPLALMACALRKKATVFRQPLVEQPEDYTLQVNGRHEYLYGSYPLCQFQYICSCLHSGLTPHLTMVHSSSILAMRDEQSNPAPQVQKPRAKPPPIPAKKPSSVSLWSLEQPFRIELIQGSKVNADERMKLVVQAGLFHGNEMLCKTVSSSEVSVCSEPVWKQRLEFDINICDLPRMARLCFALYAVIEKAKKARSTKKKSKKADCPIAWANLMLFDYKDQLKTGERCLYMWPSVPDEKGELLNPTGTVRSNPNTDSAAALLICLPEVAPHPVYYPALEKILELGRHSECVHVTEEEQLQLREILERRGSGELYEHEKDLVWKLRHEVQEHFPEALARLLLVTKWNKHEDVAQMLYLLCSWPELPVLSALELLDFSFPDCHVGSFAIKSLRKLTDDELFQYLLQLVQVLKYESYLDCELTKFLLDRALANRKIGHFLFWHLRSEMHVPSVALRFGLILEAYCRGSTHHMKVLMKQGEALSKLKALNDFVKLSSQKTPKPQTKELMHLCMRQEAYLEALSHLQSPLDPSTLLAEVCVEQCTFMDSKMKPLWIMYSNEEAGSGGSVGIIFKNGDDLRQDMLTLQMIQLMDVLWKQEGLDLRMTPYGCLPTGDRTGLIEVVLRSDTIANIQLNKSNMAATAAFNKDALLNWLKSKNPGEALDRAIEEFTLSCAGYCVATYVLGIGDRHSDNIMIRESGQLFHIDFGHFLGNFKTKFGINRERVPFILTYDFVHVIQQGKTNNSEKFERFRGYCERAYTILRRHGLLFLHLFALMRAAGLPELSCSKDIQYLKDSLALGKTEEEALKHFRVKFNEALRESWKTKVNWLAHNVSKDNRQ
T1 sequence (P27986 whole entry partner): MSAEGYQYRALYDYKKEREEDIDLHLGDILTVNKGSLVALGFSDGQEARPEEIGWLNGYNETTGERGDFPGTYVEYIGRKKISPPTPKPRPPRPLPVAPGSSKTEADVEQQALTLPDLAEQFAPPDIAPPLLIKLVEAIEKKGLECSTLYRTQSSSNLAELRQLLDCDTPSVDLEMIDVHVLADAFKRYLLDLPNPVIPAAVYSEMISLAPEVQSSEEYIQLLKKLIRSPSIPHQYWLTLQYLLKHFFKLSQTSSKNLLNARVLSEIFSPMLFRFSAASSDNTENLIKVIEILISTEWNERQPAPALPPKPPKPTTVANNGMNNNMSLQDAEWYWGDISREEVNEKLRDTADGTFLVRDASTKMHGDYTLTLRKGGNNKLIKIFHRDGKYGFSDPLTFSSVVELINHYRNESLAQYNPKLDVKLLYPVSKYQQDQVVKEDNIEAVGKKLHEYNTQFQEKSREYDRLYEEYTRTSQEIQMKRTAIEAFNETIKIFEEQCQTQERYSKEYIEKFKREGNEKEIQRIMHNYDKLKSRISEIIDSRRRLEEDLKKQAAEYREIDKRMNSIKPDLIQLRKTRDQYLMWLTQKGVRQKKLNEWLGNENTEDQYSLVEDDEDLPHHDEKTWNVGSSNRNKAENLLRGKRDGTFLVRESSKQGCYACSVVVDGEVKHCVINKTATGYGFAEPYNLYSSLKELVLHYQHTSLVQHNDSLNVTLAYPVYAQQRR

This assay has as its target T1, PI3Kδ (Homo sapiens, UniProt O00329).
T1 construct: Full length p110 subunits of PI3k α, β and δ, N-terminally labeled with polyHis tag; polyHis (N); made in house; host or cells: Sf9 insect cells (baculovirus)
Nature of the assay: PI3Kδ Alphascreen assay. The format is biochemical. (Alpha assays give light when donor and acceptor beads are brought close together.)
`Cc1c(-c2ccccn2)nc2cc(F)cc(F)c2c1Nc1cc(N2CCOCC2)ccc1C1=CCOCC1` [N-(2-(3,6-dihydro-2H-pyran-4-yl)-5-(4-morpholinyl)phenyl)-5,7-difluoro-3-methyl-2-(2-pyridinyl)-4-quinolinamine]: affinity was put at a Ki of 7.65 nM. For the compound `Cc1c(-c2ccccn2)nc2cc(F)cc(F)c2c1Nc1cc(N2CCOCC2)cnc1-c1cccc(OC(F)F)c1` [N-(2-(3-(difluoromethoxy)phenyl)-5-(4-morpholinyl)-3-pyridinyl)-5,7-difluoro-3-methyl-2-(2-pyridinyl)-4-quinolinamine], the Ki was 2.26 nM. Compound `Cc1c(-c2ccccn2)nc2cc(F)cc(F)c2c1Nc1cc(N2CCOCC2)cnc1-c1ccc(OC(F)F)cc1` [N-(2-(4-(difluoromethoxy)phenyl)-5-(4-morpholinyl)-3-pyridinyl)-5,7-difluoro-3-methyl-2-(2-pyridinyl)-4-quinolinamine] displayed an inhibition constant Ki of 1.25 nM. In turn, `Cc1c(-c2ccccn2)nc2cc(F)cc(F)c2c1Nc1cc(N2CCOCC2)cnc1Cl` [N-(2-chloro-5-(4-morpholinyl)-3-pyridinyl)-5,7-difluoro-3-methyl-2-(2-pyridinyl)-4-quinolinamine] registered a Ki of 4.26 nM. `COc1ccc(-c2ncc(N3CCOCC3)cc2Nc2c(C)c(-c3ccccc3S(C)(=O)=O)nc3cc(F)cc(F)c23)cn1` [N-(5,7-difluoro-3-methyl-2-(2-(methylsulfonyl)phenyl)-4-quinolinyl)-6′-methoxy-5-(4-morpholinyl)-2,3′-bipyridin-3-amine]: the inhibitory constant (Ki) turned out to be 1.76 nM. `COc1cncc(-c2ncc(N3CCOCC3)cc2N(C(=O)C(F)(F)F)c2c(C)c(-c3ccccn3)nc3cc(F)cc(F)c23)c1` [N-(5,7-difluoro-3-methyl-2-(2-pyridinyl)-4-quinolinyl)-2,2,2-trifluoro-N-(5′-methoxy-5-(4-morpholinyl)-2,3′-bipyridin-3-yl)-acetamide] gave an inhibition constant Ki of 227 nM. With `COc1ncccc1-c1ncc(N2CCOCC2)cc1Nc1c(C)c(-c2ccccn2)nc2cc(F)cc(F)c12` [N-(5,7-difluoro-3-methyl-2-(2-pyridinyl)-4-quinolinyl)-2′-methoxy-5-(4-morpholinyl)-2,3′-bipyridin-3-amine] the figure was 121 nM; with `COc1cc(-c2ncc(N3CCOCC3)cc2Nc2c(C)c(-c3ccccn3)nc3cc(F)cc(F)c23)ccn1` [N-(5,7-difluoro-3-methyl-2-(2-pyridinyl)-4-quinolinyl)-2′-methoxy-5-(4-morpholinyl)-2,4′-bipyridin-3-amine], 7.93 nM; with `COc1cnccc1-c1ncc(N2CCOCC2)cc1Nc1c(C)c(-c2ccccn2)nc2cc(F)cc(F)c12` [N-(5,7-difluoro-3-methyl-2-(2-pyridinyl)-4-quinolinyl)-3′-methoxy-5-(4-morpholinyl)-2,4′-bipyridin-3-amine], 7.68 nM. `COc1cc(-c2ncc(N3CCOCC3)cc2Nc2c(C)c(-c3ccccn3)nc3cc(F)cc(F)c23)c(F)cn1` [N-(5,7-difluoro-3-methyl-2-(2-pyridinyl)-4-quinolinyl)-5′-fluoro-2′-methoxy-5-(4-morpholinyl)-2,4′-bipyridin-3-amine] came in with an inhibition constant Ki of 23.5 nM.

With `COc1cncc(-c2ncc(N3CCOCC3)cc2Nc2c(C)c(-c3ccccn3)nc3cc(F)cc(F)c23)c1` [N-(5,7-difluoro-3-methyl-2-(2-pyridinyl)-4-quinolinyl)-5′-methoxy-5-(4-morpholinyl)-2,3′-bipyridin-3-amine], the Ki is 0.512 nM. With `CCOc1ccc(-c2ncc(N3CCOCC3)cc2Nc2c(C)c(-c3ccccn3)nc3cc(F)cc(F)c23)cn1` [N-(5,7-difluoro-3-methyl-2-(2-pyridinyl)-4-quinolinyl)-6′-ethoxy-5-(4-morpholinyl)-2,3′-bipyridin-3-amine] the figure was 2.62 nM. With `COc1ccc(-c2ncc(N3CCOCC3)cc2Nc2c(C)c(-c3ccccn3)nc3cc(F)cc(F)c23)cn1` [N-(5,7-difluoro-3-methyl-2-(2-pyridinyl)-4-quinolinyl)-6′-methoxy-5-(4-morpholinyl)-2,3′-bipyridin-3-amine] the figure was 1.54 nM; with `Cc1c(-c2cccnc2)nc2cc(F)cc(F)c2c1N(C(=O)C(F)(F)F)c1cncc(N2CCOCC2)c1` [N-(5,7-difluoro-3-methyl-2-(3-pyridinyl)-4-quinolinyl)-2,2,2-trifluoro-N-(5-(4-morpholinyl)-3-pyridinyl)acetamide], 47.3 nM. With `COc1ccc(-c2ncc(N3CCOCC3)cc2Nc2c(C)c(-c3cc(C)ccn3)nc3cc(F)cc(F)c23)cn1` [N-(5,7-difluoro-3-methyl-2-(4-methyl-2-pyridinyl)-4-quinolinyl)-6′-methoxy-5-(4-morpholinyl)-2,3′-bipyridin-3-amine] the figure was 3.18 nM. Turning to `Cc1c(NCC(=O)O)nc2cc(F)cc(F)c2c1Nc1cncc(N2CCOCC2)c1` [N-(5,7-difluoro-3-methyl-4-((5-(4-morpholinyl)-3-pyridinyl)-amino)-2-quinolinyl)glycine], the Ki is 131 nM. For `Cc1ccnc(-c2nc3cc(F)cc(F)c3c(Nc3cncc(-c4ccnc(N)n4)c3)c2C)c1` [N-(5-(2-amino-4-pyrimidinyl)-3-pyridinyl)-5,7-difluoro-3-methyl-2-(4-methyl-2-pyridinyl)-4-quinolinamine] the value was 5.34 nM; for `Cc1c(-c2ccccc2S(C)(=O)=O)nc2cc(F)cc(F)c2c1Nc1cncc(C2=CCOCC2)c1` [N-(5-(3,6-dihydro-2H-pyran-4-yl)-3-pyridinyl)-5,7-difluoro-3-methyl-2-(2-(methylsulfonyl)phenyl)-4-quinolinamine], 1.78 nM.

For `Cc1ccnc(-c2nc3cc(F)cc(F)c3c(Nc3cncc(C4=CCOCC4)c3)c2C)c1` [N-(5-(3,6-dihydro-2H-pyran-4-yl)-3-pyridinyl)-5,7-difluoro-3-methyl-2-(4-methyl-2-pyridinyl)-4-quinolinamine], the affinity corresponds to a Ki of 14.4 nM. For `Cc1c(N2CCOCC2)nc2cc(F)cc(F)c2c1Nc1cncc(C2=CCOCC2)c1` [N-(5-(3,6-dihydro-2H-pyran-4-yl)-3-pyridinyl)-5,7-difluoro-3-methyl-2-(4-morpholinyl)-4-quinolinamine] the value was 68.3 nM; for `COc1cncc(-c2ncc(N3CCOCC3)cc2Nc2c(C)c(-c3cc(C)ccn3)nc3c(Cl)cccc23)c1` [N-(8-chloro-3-methyl-2-(4-methyl-2-pyridinyl)-4-quinolinyl)-5′-methoxy-5-(4-morpholinyl)-2,3′-bipyridin-3-amine], 9.01 nM; for `CCOC(=O)N1CCN(c2nc3cc(F)cc(F)c3c(Nc3cncc(N4CCOCC4)c3)c2C)CC1` [ethyl 4-(5,7-difluoro-3-methyl-4-((5-(4-morpholinyl)-3-pyridinyl)amino)-2-quinolinyl)-1-piperazinecarboxylate], 45.5 nM.

In turn, `COC(=O)N1CCN(c2nc3cc(F)cc(F)c3c(Nc3cc(N4CCOCC4)cnc3N3CCOCC3)c2C)CC1` [methyl 4-(4-((2,5-di-4-morpholinyl-3-pyridinyl)amino)-5,7-difluoro-3-methyl-2-quinolinyl)-1-piperazinecarboxylate] yielded a Ki of 7.02 nM.

`COC(=O)N1CCN(c2nc3cc(F)cc(F)c3c(Nc3cncc(N4CCOCC4)c3)c2C)CC1` [methyl 4-(5,7-difluoro-3-methyl-4-((5-(4-morpholinyl)-3-pyridinyl)amino)-2-quinolinyl)-1-piperazinecarboxylate]: the affinity, expressed as Ki, was 9.23 nM.

Regarding `COC(=O)N1CCN(c2nc3cc(F)cc(F)c3c(Nc3cncc(N4CCOCC4)c3)c2C)C[C@H]1C` [methyl (2R)-4-(5,7-difluoro-3-methyl-4-((5-(4-morpholinyl)-3-pyridinyl)amino)-2-quinolinyl)-2-methyl-1-piperazinecarboxylate], the Ki amounted to 185 nM.

The compound `COC(=O)N1CCN(c2nc3cc(F)cc(F)c3c(Nc3cncc(N4CCOCC4)c3)c2C)C[C@@H]1C` [methyl (2S)-4-(5,7-difluoro-3-methyl-4-((5-(4-morpholinyl)-3-pyridinyl)amino)-2-quinolinyl)-2-methyl-1-piperazinecarboxylate] yielded a Ki of 15 nM. With `COC(=O)N1CCN(c2nc3cc(F)cc(F)c3c(Nc3cncc(N4CCOCC4)c3)c2C)[C@H](C)C1` [methyl (3R)-4-(5,7-difluoro-3-methyl-4-((5-(4-morpholinyl)-3-pyridinyl)amino)-2-quinolinyl)-3-methyl-1-piperazinecarboxylate] the figure was 31.8 nM; with `Cc1c(N2CCC[C@@H]2C(=O)OC(C)(C)C)nc2cc(F)cc(F)c2c1Nc1cncc(N2CCOCC2)c1` [tert-butyl 1-(5,7-difluoro-3-methyl-4-((5-(4-morpholinyl)-3-pyridinyl)amino)-2-quinolinyl)-D-prolinate], 18 nM. In turn, `Cc1c(N2CCC[C@H]2C(=O)OC(C)(C)C)nc2cc(F)cc(F)c2c1Nc1cncc(N2CCOCC2)c1` [tert-butyl 1-(5,7-difluoro-3-methyl-4-((5-(4-morpholinyl)-3-pyridinyl)amino)-2-quinolinyl)-L-prolinate] displayed an inhibition constant (Ki) of 2.22 nM. For `Cc1c(N2CCN(C(=O)OC(C)(C)C)CC2)nc2cc(F)cc(F)c2c1Nc1cc(N2CCOCC2)cnc1N1CCOCC1` [tert-butyl 4-(4-((2,5-di-4-morpholinyl-3-pyridinyl)amino)-5,7-difluoro-3-methyl-2-quinolinyl)-1-piperazinecarboxylate] the value was 34.1 nM. For `Cc1c(N2CCN(C(=O)OC(C)(C)C)CC2)nc2cc(F)cc(F)c2c1Nc1cncc(N2CCOCC2)c1` [tert-butyl 4-(5,7-difluoro-3-methyl-4-((5-(4-morpholinyl)-3-pyridinyl)amino)-2-quinolinyl)-1-piperazinecarboxylate] the value was 353 nM; for `Cc1c(N2CCN(C(=O)OC(C)(C)C)[C@H](C)C2)nc2cc(F)cc(F)c2c1Nc1cncc(N2CCOCC2)c1` [tert-butyl (2R)-4-(5,7-difluoro-3-methyl-4-((5-(4-morpholinyl)-3-pyridinyl)amino)-2-quinolinyl)-2-methyl-1-piperazinecarboxylate], 832 nM.

As for `Cc1c(N2CCN(C(=O)OC(C)(C)C)[C@@H](C)C2)nc2cc(F)cc(F)c2c1Nc1cncc(N2CCOCC2)c1` [tert-butyl (2S)-4-(5,7-difluoro-3-methyl-4-((5-(4-morpholinyl)-3-pyridinyl)amino)-2-quinolinyl)-2-methyl-1-piperazinecarboxylate], the Ki was 112 nM.
